Experimental data: patent US20250034216A1, “STEREOSELECTIVE COVALENT LIGANDS FOR ONCOGENIC AND IMMUNOLOGICAL PROTEINS” (The Scripps Research Institute, priority 2021, published 2025)

Experiments:
Experiment in all cases: IA-DTB cysteine engagement
Format in all cases: binding
Details in all cases: 22Rv1 cells, 20 μM probe, 1 h, relative to DMSO
[1] = molecular target: T1, GCN1_C1095 (Homo sapiens, UniProt Q92616)
T1 construct: endogenous in cells; host or cells: 22Rv1
How it was run: (§1)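 Cells were treated in situ with electrophilic probes, then lysed, and the lysates (2 mg/mL protein) were labeled with IA-DTB for 1 h at ambient temperature. After reduction, alkylation and trypsin digestion, labeled peptides were streptavidin-enriched, TMT-labeled and fractionated. Engagement ratios are probe vs DMSO reporter intensities, averaged across replicates.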

[2] = molecular target: T2, GPAT4_C325 (Homo sapiens, UniProt Q86UL3)
T2 construct: endogenous in cells; host or cells: 22Rv1
T2 sequence (Q86UL3 38-456): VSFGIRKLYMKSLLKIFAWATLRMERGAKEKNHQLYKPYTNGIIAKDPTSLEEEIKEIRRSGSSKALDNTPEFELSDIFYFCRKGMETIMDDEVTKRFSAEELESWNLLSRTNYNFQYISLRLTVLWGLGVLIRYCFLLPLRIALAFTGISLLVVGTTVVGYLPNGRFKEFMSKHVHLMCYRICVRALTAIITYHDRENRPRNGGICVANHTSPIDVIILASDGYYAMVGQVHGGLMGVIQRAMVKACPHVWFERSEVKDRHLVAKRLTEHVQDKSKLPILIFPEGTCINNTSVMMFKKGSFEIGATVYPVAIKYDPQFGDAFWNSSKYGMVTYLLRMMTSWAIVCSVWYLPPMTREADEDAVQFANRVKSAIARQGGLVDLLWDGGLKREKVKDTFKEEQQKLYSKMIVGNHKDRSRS
How it was run: as §1

[3] = molecular target: T3, HMOX2_C265 (Homo sapiens, UniProt P30519)
T3 construct: endogenous in cells; host or cells: 22Rv1
T3 sequence (P30519 1-316): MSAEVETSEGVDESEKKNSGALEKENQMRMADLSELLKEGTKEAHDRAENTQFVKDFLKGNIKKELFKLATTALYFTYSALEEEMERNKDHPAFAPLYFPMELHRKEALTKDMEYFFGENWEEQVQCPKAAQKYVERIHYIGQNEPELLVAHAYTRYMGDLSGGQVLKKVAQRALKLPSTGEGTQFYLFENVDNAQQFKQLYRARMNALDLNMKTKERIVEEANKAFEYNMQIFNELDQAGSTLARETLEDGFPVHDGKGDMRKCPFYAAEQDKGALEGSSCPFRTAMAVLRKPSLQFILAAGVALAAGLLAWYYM
How it was run: as §1

[4] = molecular target: T4, HSD11B2_C264 (Homo sapiens, UniProt P80365)
T4 construct: endogenous in cells; host or cells: 22Rv1
T4 sequence (P80365 1-405): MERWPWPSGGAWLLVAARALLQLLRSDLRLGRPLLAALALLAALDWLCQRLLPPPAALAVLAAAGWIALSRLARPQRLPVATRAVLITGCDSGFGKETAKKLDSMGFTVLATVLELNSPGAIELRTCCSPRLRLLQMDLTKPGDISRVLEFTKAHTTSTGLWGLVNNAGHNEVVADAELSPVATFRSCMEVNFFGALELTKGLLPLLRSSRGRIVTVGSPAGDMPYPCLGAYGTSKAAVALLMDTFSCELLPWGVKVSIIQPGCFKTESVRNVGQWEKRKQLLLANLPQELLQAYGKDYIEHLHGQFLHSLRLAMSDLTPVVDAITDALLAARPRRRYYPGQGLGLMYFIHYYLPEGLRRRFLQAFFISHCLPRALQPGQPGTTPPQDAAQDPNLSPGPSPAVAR
How it was run: as §1

[5] = molecular target: T5, NUP205_C224 (Homo sapiens, UniProt Q92621)
T5 construct: endogenous in cells; host or cells: 22Rv1
T5 sequence (Q92621 whole entry): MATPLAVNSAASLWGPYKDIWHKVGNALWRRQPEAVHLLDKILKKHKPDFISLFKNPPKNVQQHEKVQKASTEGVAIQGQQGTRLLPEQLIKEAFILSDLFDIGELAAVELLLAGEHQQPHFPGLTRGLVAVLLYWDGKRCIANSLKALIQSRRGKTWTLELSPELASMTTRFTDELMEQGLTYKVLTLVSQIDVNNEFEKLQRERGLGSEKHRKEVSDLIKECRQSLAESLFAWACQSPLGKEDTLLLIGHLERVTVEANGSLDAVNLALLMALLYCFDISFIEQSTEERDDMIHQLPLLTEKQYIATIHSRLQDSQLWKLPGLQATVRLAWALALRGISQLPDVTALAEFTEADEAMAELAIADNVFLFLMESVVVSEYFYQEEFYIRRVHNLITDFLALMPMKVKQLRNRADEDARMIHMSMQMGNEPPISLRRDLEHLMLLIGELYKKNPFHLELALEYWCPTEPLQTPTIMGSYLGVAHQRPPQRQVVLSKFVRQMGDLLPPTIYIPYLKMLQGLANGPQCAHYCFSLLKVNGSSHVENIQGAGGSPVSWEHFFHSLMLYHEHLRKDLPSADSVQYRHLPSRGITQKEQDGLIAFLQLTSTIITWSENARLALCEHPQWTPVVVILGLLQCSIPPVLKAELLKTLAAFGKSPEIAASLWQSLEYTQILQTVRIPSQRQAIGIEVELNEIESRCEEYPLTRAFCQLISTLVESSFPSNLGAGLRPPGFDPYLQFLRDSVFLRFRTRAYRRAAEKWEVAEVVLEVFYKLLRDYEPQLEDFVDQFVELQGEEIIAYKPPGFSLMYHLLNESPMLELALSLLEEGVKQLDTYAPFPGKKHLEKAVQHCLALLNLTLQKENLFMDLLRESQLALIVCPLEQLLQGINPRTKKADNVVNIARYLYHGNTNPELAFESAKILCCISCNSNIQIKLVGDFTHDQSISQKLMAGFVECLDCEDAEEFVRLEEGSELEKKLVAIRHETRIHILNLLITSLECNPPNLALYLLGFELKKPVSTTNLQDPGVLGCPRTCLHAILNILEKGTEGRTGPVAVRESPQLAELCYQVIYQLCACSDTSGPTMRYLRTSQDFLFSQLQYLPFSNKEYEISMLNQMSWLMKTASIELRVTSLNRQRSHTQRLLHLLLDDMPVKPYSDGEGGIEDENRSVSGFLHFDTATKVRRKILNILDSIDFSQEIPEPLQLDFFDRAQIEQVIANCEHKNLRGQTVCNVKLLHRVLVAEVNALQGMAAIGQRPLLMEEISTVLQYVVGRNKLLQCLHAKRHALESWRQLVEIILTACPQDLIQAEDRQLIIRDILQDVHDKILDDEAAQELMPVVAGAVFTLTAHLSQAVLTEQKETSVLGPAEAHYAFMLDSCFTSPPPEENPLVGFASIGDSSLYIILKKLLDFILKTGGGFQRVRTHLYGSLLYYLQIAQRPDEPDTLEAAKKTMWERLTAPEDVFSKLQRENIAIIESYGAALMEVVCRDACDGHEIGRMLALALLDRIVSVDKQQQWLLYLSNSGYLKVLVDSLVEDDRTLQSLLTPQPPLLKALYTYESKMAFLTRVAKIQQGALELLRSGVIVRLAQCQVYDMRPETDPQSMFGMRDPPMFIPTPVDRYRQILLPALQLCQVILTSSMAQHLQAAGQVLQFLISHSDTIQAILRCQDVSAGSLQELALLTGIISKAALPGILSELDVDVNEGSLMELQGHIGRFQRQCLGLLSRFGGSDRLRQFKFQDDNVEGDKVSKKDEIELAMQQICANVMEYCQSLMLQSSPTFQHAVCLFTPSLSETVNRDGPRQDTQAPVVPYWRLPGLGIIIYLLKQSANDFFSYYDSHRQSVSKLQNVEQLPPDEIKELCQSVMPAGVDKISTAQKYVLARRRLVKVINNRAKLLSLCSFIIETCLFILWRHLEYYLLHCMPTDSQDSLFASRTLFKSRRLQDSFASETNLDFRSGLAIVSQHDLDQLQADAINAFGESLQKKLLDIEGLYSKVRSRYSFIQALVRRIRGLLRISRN
How it was run: as §1

T1 sequence (Q92616 whole entry): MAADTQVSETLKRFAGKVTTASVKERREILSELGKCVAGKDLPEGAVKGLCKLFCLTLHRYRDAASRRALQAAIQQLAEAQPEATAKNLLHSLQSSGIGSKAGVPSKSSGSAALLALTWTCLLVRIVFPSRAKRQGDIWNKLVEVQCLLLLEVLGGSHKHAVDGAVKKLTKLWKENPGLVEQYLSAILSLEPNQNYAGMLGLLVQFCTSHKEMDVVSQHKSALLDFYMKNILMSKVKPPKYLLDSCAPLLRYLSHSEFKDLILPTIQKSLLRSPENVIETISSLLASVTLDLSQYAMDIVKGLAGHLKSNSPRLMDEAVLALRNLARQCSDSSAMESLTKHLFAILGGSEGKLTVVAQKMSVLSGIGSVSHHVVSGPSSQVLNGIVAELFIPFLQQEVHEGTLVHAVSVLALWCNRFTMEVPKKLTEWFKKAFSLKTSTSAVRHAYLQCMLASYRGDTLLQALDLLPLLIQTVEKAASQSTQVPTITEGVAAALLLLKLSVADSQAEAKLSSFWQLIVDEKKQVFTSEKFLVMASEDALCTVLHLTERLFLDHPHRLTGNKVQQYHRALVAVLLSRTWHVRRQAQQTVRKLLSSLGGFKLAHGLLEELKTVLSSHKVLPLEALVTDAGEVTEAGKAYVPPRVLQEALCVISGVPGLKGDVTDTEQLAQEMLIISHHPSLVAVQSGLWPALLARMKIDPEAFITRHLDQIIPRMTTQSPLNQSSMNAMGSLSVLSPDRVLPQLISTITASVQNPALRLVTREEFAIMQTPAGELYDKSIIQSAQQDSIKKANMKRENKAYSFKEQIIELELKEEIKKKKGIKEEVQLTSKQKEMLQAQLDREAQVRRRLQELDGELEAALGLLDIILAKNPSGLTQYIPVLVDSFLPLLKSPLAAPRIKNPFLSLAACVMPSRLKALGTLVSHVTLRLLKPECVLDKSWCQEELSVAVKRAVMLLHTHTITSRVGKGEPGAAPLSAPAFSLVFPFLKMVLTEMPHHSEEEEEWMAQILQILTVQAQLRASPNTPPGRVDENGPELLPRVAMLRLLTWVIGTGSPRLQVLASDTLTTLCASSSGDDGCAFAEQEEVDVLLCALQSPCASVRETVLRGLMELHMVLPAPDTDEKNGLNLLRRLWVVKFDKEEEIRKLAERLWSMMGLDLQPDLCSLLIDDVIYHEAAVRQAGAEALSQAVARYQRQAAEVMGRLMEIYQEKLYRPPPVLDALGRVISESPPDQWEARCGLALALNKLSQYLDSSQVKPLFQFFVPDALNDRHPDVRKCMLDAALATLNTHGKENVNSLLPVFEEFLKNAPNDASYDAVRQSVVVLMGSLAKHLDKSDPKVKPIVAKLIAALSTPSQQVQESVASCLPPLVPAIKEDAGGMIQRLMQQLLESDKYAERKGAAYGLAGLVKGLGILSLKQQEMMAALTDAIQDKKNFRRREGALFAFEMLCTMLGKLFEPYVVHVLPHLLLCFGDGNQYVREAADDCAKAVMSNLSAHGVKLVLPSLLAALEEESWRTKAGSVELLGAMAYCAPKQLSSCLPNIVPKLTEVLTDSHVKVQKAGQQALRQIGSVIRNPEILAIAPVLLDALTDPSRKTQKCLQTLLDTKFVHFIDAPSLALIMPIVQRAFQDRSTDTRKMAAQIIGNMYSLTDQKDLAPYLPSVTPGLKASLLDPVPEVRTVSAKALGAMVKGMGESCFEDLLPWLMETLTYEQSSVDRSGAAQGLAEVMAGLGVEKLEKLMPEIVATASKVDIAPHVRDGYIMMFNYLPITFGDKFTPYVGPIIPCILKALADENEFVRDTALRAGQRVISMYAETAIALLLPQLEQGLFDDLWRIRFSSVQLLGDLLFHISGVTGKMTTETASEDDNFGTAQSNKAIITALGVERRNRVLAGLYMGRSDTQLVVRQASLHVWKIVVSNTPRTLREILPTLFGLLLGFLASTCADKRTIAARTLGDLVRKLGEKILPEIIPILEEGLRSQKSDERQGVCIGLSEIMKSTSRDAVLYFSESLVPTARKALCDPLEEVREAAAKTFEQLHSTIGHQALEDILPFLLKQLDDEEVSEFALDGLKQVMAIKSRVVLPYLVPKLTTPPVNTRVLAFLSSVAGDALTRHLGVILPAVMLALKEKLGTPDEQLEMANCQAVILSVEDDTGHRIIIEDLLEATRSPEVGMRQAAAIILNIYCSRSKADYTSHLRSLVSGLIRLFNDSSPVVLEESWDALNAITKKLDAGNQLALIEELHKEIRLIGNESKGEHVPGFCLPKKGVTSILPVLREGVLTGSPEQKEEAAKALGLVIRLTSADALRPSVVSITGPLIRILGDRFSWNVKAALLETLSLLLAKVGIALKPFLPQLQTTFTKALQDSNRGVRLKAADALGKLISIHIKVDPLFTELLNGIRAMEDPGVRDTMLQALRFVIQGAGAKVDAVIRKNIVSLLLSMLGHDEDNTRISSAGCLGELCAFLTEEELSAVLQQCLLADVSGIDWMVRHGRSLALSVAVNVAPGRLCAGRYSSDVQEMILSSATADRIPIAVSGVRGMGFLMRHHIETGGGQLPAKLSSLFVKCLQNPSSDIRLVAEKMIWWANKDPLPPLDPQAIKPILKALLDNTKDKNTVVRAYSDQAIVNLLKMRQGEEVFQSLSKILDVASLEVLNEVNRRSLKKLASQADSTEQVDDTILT

## C=CC(=O)N1C[C@@H](c2ccc(Br)cc2)[C@H]1C(=O)Nc1cccc2cccnc12 [MY-1A, (2S,3R)-1-acryloyl-3-(4-bromophenyl)-N-(quinolin-8-yl)azetidine-2-carboxamide]
[1]
  % engagement GCN1_C1095: 18.5%
[2]
  % engagement GPAT4_C325: 83.25%
[3]
  % engagement HMOX2_C265: 72.5%
[4]
  % engagement HSD11B2_C264: 30.5%
[5]
  % engagement NUP205_C224: 28.5%

## C=CC(=O)N1C[C@H](c2ccc(Br)cc2)[C@@H]1C(=O)Nc1cccc2cccnc12 [MY-1B, (2R,3S)-1-acryloyl-3-(4-bromophenyl)-N-(quinolin-8-yl)azetidine-2-carboxamide]
[1]
  % engagement GCN1_C1095: 84%
[2]
  % engagement GPAT4_C325: 80%
[3]
  % engagement HMOX2_C265: 73.5%
[4]
  % engagement HSD11B2_C264: 22%
[5]
  % engagement NUP205_C224: 6%

## C=CC(=O)N1C[C@H](c2ccc(Br)cc2)[C@H]1C(=O)Nc1cccc2cccnc12 [MY-3A, (2S,3S)-1-acryloyl-3-(4-bromophenyl)-N-(quinolin-8-yl)azetidine-2-carboxamide]
[1]
  % engagement GCN1_C1095: 5%
[2]
  % engagement GPAT4_C325: 67.25%
[3]
  % engagement HMOX2_C265: 71.75%
[4]
  % engagement HSD11B2_C264: 23.5%
[5]
  % engagement NUP205_C224: 100%

## C=CC(=O)N1C[C@H](c2ccc(Br)cc2)[C@H]1C(=O)Nc1cccc2cccnc12 [MY-3B, (2S,3S)-1-acryloyl-3-(4-bromophenyl)-N-(quinolin-8-yl)azetidine-2-carboxamide]
[1]
  % engagement GCN1_C1095: −7.5%
[2]
  % engagement GPAT4_C325: 93.75%
[3]
  % engagement HMOX2_C265: 79.5%
[4]
  % engagement HSD11B2_C264: 90.25%
[5]
  % engagement NUP205_C224: 30.5%
